Entries after “also recorded” stand apart in the source; their conditions may differ. Read-outs that look alike come from different tables or passages of the source.
What was measured:
[1] = tested on: SH-SY5Y cells; test: Western blot for dimethylated H3K4 in SH-SY5Y cells; assay type: cell-based
Source text: B-actin was used as a loading control.

[2] = tested on: R6/2 mice; test: Longevity / survival study in R6/2 mouse; conditions: for survival versus vehicle and sertraline treated animals: 10 mg/kg
Protocol: The solutions are made and stored according to instructions provided by the sponsor (storage conditions and expiration day of solution).
Body weight is measured starting at age of four weeks and two times per week on the same day (i.e., Monday and Thursday) until end of the study. For convenience this is done just prior to animals receiving doses for those days. Animals are monitored twice-a-day by laboratory personnel (8 am and 4 pm) for “survival.” It is most optimal to measure “true survival” that is when the mouse has no detectable heartbeat. Since IACUC restrictions prevent this then using a definable and quantifiable endpoint for “survival” need to be used (see section 2.7 humane end-points). […] For instance, body temperature changes can drop just before death but many R6/2 mice show spontaneous death without preceding body temperature changes. More easily measured is body weight loss. […] Again mice that die spontaneously may not show such acute body weight changes. For these alternative measures combining these “survival” data (body weight or temperature decrease) with “survival” of spontaneous death mice (age found dead in a cage) is suitable.

[3] = Body weight loss in chronically treated R6/2 mouse; assay type: in vivo; conditions: R6/2 mice, 5 mg/kg or 10 mg/kg IP per day, chronic
Source text: More easily measured is body weight loss.
In the R6/2 mouse study described above the weight of the animals were monitored to determine if the LSD1 or LSD1/MAO-B dual inhibitor cause weight loss in chronically treated animals. […] .

[4] = tested on: mouse haloperidol model; test: Mouse haloperidol model of catalepsy; assay type: in vivo; conditions: control caffeine
Source text: See, e.g., East et al. (2010), Bioorg. Med Chem. Lett., August 15; 20(16):4901-5, Epub 2010 Jun. 25.

[5] = tested on: R6/2 mice; test: Two-choice swim test in R6/2 mouse; assay type: in vivo; conditions: transgenic R6/2 mice
Source text: Eighty male and female R6/2 mice and 20 male and female wild-type littermate control mice (F1 generation) will be bred by Cerebricon at FELASA compliant National Animal Facility Center Kuopio by mating (F0 generation) WT males (C57BL6CBA F1 hybrid, JAX) with ovarian transferred (01) TG females (JAX). Breeder animals receive igloos instead of play tunnels, nylabone and cotton nestlets and use Purina diet 5008. Upon weaning, pups receive Purina diet 5001.
Sertraline will be made fresh daily by diluting to 1% TWEEN® 80 in ddH2°.
Two-Choice Swim Test: The two-choice swim test is performed at age week 9. The swim tank (dimensions: 70 cm×30 cm×30 cm) is filled with water (26±1° C.) no higher than 1 cm from the top of a hidden escape platform. The hidden cylindrical platform (diameter, 6.0 cm, height,˜9 cm) is placed either at right or left end of the tank. During acquisition of the task, each mouse is given six training trials per day to swim towards or away from the right end (counterbalanced across subjects) to escape onto the platform. […] A choice is recorded when a mouse moves towards one end and swims beyond 20 cm from the center. If the mouse fails to make a choice within about 15 minutes a “no choice” is recorded. […] In all trials, choice, latency and “no choice” are recorded.

[6] = tested on: Drosophila melanogaster expressing HD-Q120; test: Eye (rhabdomere) degeneration in Huntington disease fly line B-8533; assay type: in vivo; conditions: 1 μM and 5 μM
Source text: The eye of the fruit fly, Drosophila melanogaster, provides an ideal model system for studying neuronal survival. Each eye consists of approximately 800 units called ommatidia arranged in a regular pattern and the photoreceptors that compose each ommatidium exist in an ordered trapezoidal array. The presence and organization of these cells can be readily assessed using a technique called optical neutralization of the cornea (Franceschini and Kirschfeld, 1971).
This technique is being used in a screen for compounds that can rescue the neurodegenerative phenotype of a Drosophila model of Huntingtons disease (HD), fly line B-8533 (Jackson et al., 1998). This line contains a P-element construct inserted on the second chromosome, P{w+ gmr.HD-Q120)}. The construct contains a w+ visible eye-color marker, which enables confirmation of the presence of the insertion. […]
The now three- to ten-day-old flies are added to the vials (six to ten females and three males in each), incubated at 25° for seven to ten days. […] F1 eclosion-start date is noted and males and females are counted. […] Ommatidia are scored for number of visible rhabdomeres (0 to 7). […] Significance can be determined by the Mann-Whitney U-test or one-tailed student's T-test. […]

[7] = target: T1, Human recombinant monoamine oxidase MAO-A (Homo sapiens, UniProt P21397); test: MAO-A inhibition assay (kynuramine fluorescence); assay type: biochemical
T1 construct: purchased Sigma Aldrich
T1 sequence (P21397 1-527): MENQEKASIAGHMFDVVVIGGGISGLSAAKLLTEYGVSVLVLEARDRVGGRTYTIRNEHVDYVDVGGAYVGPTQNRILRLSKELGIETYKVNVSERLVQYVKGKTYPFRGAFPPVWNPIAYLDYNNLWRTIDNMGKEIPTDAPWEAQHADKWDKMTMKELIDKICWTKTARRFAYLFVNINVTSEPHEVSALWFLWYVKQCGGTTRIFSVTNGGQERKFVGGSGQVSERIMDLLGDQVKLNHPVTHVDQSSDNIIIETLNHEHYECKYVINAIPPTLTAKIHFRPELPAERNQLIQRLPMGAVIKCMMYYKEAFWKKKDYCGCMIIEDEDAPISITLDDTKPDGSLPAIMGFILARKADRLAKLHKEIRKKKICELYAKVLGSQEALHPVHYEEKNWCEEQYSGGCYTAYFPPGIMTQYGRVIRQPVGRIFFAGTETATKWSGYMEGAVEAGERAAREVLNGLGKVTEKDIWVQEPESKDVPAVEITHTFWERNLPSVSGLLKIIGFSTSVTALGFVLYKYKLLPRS
Source text: Human recombinant monoamine oxidase proteins MAO-A and MAO-B were purchased from Sigma Aldrich. MAOs catalyze the oxidative deamination of primary, secondary and tertiary amines. In order to monitor MAO enzymatic activities and/or their inhibition rate by inhibitor(s) of interest, a fluorescent-based (inhibitor)-screening assay was set up. 3-(2-Aminophenyl)-3-oxopropanamine (kynuramine dihydrobromide, Sigma Aldrich), a non fluorescent compound was chosen as a substrate. Kynuramine is a non-specific substrate for both MAOs activities. While undergoing oxidative deamination by MAO activities, kynuramine is converted into 4-hydroxyquinoline (4-HQ), a resulting fluorescent product.
The monoamine oxidase activity was estimated by measuring the conversion of kynuramine into 4-hydroxyquinoline. Assays were conducted in 96-well black plates with clear bottom (Corning) in a final volume of 100 μL. The assay buffer was 100 mM HEPES, pH 7.5. Each experiment was performed in triplicate within the same experiment. […] The conversion of kynuramine to 4-hydroxyquinoline, was monitored by fluorescence (excitation at 320 nm, emission at 360 nm) using a microplate reader (Infinite 200, Tecan). Arbitrary units were used to measure levels of fluorescence produced in the absence and/or in the presence of inhibitor. […] The Ki (TC50) of each inhibitor was determined at Vmax/2.

## NC(=O)CNC1CC1c1ccc(OCc2ccccc2)cc1 (stereo not shown) [Compound Dual-1]
[1]; 100 μM, one, two and three days
  levels of dimethylated H3K4 (western blot): increases H3K4 methylation in cells in a time dependent manner; also recorded: increases levels of dimethylated H3K4 in cells in a time dependent manner
[1]; Dual-1 100 μM vs parnate 250 μM
  potency at increasing global dimethylated H3K4 levels as compared to tranylcypromine: ten-fold or more potent
[2]; R6/2 mouse study
  longevity (overall survival): can increase the longevity
[2]; female R6/2 mice
  survival versus vehicle and sertraline treated animals: survived longer
[2]; male and female R6/2 mice
  survival versus vehicle and sertraline treated animals: survived longer
[3]
  body weight loss compared to transgenic animals treated with vehicle or sertraline: caused no significant weight loss; also recorded: did not have substantially different weight losses
[4]
  rescue of toxin induced deficit (catalepsy): rescue the toxin induced deficit in a manner similar to or better than control compound caffeine or no treatment
[5]; 5 mg/kg ip
  other parameters of two-choice swim test: clear trend (NS)
[5]; 5 mg/kg ip once-a-day, age week 9, 5 mg/kg
  performance in two-choice swim test (latency to find the platform): significantly improved the performance; also recorded: improved response in the two-choice swim test

## CN1CCN(C(=O)CNC2CC2c2ccc(OCc3ccccc3)cc2)CC1 (stereo not shown) [Compound Selective-1]
[6]; day 2
  rhabdomere degeneration as compared to vehicle treated flies: reduced rhadomere degeneration
[6]; day not stated
  rescue of eye degeneration phenotype as compared to vehicle treated fly: in a concentration dependent manner rescues the eye degeneration phenotype
[7]
  IC50: > 1000 nM

## CN1CCN(C(=O)CNC2CC2c2ccc(C3CC3)cc2)CC1 (stereo not shown) [Selective-2]
[7]; read-out: MAO-A IC50
  IC50: > 1000 nM

— patent US20160081947A1, “SELECTIVE LSD1 AND DUAL LSD1/MAO-B INHIBITORS FOR MODULATING DISEASES ASSOCIATED WITH ALTERATIONS IN PROTEIN CONFORMATION” (ORYZON GENOMICS S.A., priority 2010, published 2016)
